Key:
[1] = target: T1, ICR-Mo (AXE82_07515) (Faucicola osloensis, UniProt A0A378QCY4); test: TLC of fluorescent lipid, LC/MS; type: biochemical; conditions: pH 7.5, 25°C, ~24 h, 0.2 mM substrate, 40 μM enzyme, 0.03% DDM
T1 construct: gene eptA; full-length synthetic gene in pET21a, membrane protein, Ni-NTA purified in DDM, ~60 kDa

[2] = target: T2, EptA (Neisseria gonorrhoeae, UniProt B4RMY8); test: TLC of fluorescent lipid; type: biochemical; conditions: pH 7.5, 25°C, ~24 h, 0.2 mM substrate, 40 μM enzyme, 0.03% DDM
T2 construct: gene NGK_1498; full-length membrane protein, purified in DDM
T2 sequence (B4RMY8 entry or part of it): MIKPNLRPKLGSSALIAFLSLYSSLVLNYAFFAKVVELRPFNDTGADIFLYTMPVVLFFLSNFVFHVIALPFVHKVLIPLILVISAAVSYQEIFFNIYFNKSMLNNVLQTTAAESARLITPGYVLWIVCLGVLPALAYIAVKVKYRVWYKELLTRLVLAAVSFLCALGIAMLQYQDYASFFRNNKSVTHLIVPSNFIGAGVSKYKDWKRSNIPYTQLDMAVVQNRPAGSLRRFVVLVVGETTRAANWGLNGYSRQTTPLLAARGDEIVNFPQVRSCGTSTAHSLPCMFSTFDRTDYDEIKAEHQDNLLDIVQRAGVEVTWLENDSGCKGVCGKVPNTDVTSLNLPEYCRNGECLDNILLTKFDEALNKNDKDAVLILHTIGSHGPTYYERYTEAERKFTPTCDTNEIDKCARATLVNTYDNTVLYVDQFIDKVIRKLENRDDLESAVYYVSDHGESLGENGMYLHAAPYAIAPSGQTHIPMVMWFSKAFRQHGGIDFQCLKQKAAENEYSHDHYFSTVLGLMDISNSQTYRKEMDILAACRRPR

T1 sequence (A0A378QCY4 entry or part of it): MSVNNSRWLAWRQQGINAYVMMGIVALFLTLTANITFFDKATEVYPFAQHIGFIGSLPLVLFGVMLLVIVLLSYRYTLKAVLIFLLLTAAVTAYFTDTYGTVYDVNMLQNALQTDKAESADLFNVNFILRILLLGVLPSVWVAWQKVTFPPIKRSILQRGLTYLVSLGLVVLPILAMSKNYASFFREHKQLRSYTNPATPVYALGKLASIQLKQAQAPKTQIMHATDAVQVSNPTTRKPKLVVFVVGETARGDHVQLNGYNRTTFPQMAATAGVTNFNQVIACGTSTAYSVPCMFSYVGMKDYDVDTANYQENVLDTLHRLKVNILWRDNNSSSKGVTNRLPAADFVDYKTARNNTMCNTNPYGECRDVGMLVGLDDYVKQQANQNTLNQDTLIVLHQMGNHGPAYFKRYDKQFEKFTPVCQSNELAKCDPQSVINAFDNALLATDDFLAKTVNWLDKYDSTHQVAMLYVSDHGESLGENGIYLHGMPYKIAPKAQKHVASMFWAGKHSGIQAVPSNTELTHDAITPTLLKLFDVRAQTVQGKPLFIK

CCCCCCCCCCCCCCCC(=O)OC[C@H](COP(=O)(O)OCCN)OC(=O)CCCCCCCCCCCNc1ccc([N+](=O)[O-])c2nonc12 [NBD-glycerol-3-PEA, 1-acyl-2-{12-[(7-nitro-2-1,3-benzoxadiazol-4-yl)amino]dodecanoyl}-sn-glycero-3-phosphoethanolamine]
TLC of fluorescent lipid, LC/MS [1]: ICR-Mo displays an enzymatic activity of removing the PEA moiety from the lipid substrate | TLC of fluorescent lipid [2]: Minus denotes no addition of the enzyme of EptA/MCR-1/MCR-2/ICR-Mo

— paper PMC5983563, “Defining ICR-Mo, an intrinsic colistin resistance determinant from Moraxella osloensis” (PLoS Genetics, 2018)
